Tests used:
PKCD = PKCD (Homo sapiens, UniProt Q05655); experiment: Enzyme selectivity panel; format: biochemical; settings: 1 mM ATP
Procedure: (§1) The kinase assays were carried out at room temperature in HEPES 50 mM, pH 7.0, NaN3 0.02%, BSA 0.01%, Orthovanadate 0.1 mM, DTT 1 mM, MgCl2 10 mM in a final volume of 10 µL. Test compounds were transferred to the plate wells by ECHO liquid handler (Labcyte, San Jose, CA) with 0.5% dimethyl sulfoxide (DMSO) in the final assay. Peptide/kinase mixtures were diluted in the appropriate enzymatic buffer and 5µL of the mixture was added to a 384-well small volume black plate. Reactions were initiated by the addition of 5 µL ATP in reaction buffer, the final reaction mixture consisted of 500 nM peptide substrate, 1 mM ATP, and appropriate amount of specific kinase. […] The plates were then sealed and centrifuged at 1800 rpm for 2 minutes. […] Half maximal inhibitory concentration (IC50) determination was performed by fitting the curve of percent control activity versus the log of the compound concentration using the GraphPad Prism 6.0 software.

[1] = system: phospho-FGFR3 in RT-112 cells; settings: proximity ligation assay
UMUC3 = experiment: Cell viability assay (CellTiter-Glo); format: cell-based; settings: Homo sapiens, Bladder, lacking FGFR alterations
TRKA = TRKA (Homo sapiens, UniProt P04629); experiment: Enzyme selectivity panel; format: biochemical; settings: 1 mM ATP
Procedure: as §1

PHKG2 = target: T1, PHKG2 (Homo sapiens, UniProt P15735); experiment: Enzyme selectivity panel; format: biochemical; settings: 1 mM ATP
T1 construct: purchased In-house HTRF panel (56 kinases) and PerkinElmer (161-kinase panel)
Procedure: as §1

Pharmacokinetic analyses = format: in vivo, Sprague Dawley rats; settings: male rat
Procedure: The i.v. formulation in rats was 5% dimethylacetamide (DMAC) and 25% sulfobutyl ether β-cyclodextrin in acidified saline (pH 3). The i.v. formulation in dogs and monkeys was 5% DMAC and 20% sulfobutyl ether β-cyclodextrin in saline. The oral formulation in all species was 5% DMAC in 0.5% methylcellulose aqueous solution. For rats, blood samples were collected at predose, 5 (i.v. dosing only), 15, and 30 minutes, and 1, 2, 4, 6, 8, and 24 hours. For dogs, blood samples were collected at predose, 2.5 and 5 (i.v. dosing only), 15, and 30 minutes, and 1, 2, 3, 4, 6, 8, 12, and 24 hours postdose. For monkeys, blood samples were collected at predose, 5 and 10 (i.v. dosing only), 15, and 30 minutes, and 1, 2, 3, 4, 6, 8, 12, 16, and 24 hours postdose. Collected blood samples were processed to extract plasma by centrifugation and stored at −20 °C until analysis.
The plasma was protein precipitated and the diluted supernatant was analyzed using LC/MS/MS. A standard curve was prepared in plasma from 1 to 5,000 nM and processed in the same manner as the samples. The pharmacokinetic parameters were determined using WinNonLin 6.3.

KG1a (AML) = experiment: Cell viability assay (CellTiter-Glo); format: cell-based; settings: Homo sapiens, KG-1a; FGFR1OP2-FGFR1 fusion; 72 hours; read-out: Mean GI50 ± S.D.
[2] = system: phospho-FRS2 and phospho-ERK in RT-4 cells (FGFR3-TACC3); experiment: Western blot of FGFR pathway markers; format: cell-based; settings: 2 hours
Source text: All antibodies were purchased from commercial sources as follows: antibodies against FGFR1 (monoclonal [rabbit], catalogue no. 9740, Antibody Registry Identifier AB_11178519), ERK (monoclonal [mouse], 9107, AB_10695739), phospho-p42/44 ERK1/2 (monoclonal [rabbit], 4370, AB_2315112), phospho-STAT5 (Tyr694; monoclonal [rabbit], 4322, AB_10544692), and STAT5 (monoclonal [rabbit], 9358, AB_659905) were from Cell Signaling Technologies (Danvers, MA) and used at 1:1000 dilution; FGFR3 (monoclonal [rabbit], AB133644, AB_2810262) and FRS2 (polyclonal [rabbit], AB10425, AB_2247176) were from Abcam (Cambridge, UK) and used at 1:2000; and phospho-FRS2 (Tyr436; polyclonal [rabbit], AF5126, AB_2106234) was from R&D Systems (Minneapolis, MN) and used at 1 μg/mL. The pFGFR2 enzyme-linked immunosorbent assay (ELISA) kit was purchased from R&D Systems and ELISA was performed per manufacturer protocol.
Original Western blot images are shown in S1 File (S1 Raw images).

[3] = system: serum inorganic phosphate; experiment: Serum phosphate pharmacodynamic study; format: in vivo, C57BL/6 mice; settings: single oral dose
Procedure: Female C57BL/6 mice, 5–8 weeks of age, were obtained from Charles River Laboratories. […] Twenty-four hours after dosing, mice were anesthetized under isoflurane. Approximately 200 μL of whole blood was collected by capillary retro-orbital sinus sampling into lithium heparin collection tubes (RAM Scientific, Yonkers, NY). Blood was maintained at 4°C and transported for analysis to DuPont Haskell Global Centers for Health and Environmental Science (Newark, DE). Each sample was analyzed for levels of inorganic phosphate within 4 hours of receipt. Serum clinical chemistry parameters were determined using an Olympus® AU640 clinical chemistry analyzer (Beckman Coulter, Brea, CA). Both phosphate and calcium are manufacturer-supplied reagents and methods.

[4] = system: b-FGF induced growth of human umbilical vein endothelial cells (HUVEC); experiment: HUVEC proliferation stimulated with b-FGF; format: cell-based; settings: read-out: IC50 for b-FGF induced growth
RT-112 (bladder cancer) = experiment: Cell viability assay (CellTiter-Glo); format: cell-based; settings: Homo sapiens, FGFR3-TACC3 fusion, 72 hours, read-out: Mean GI50 ± S.D.
SGK2 = target: T2, SGK2 (Homo sapiens, UniProt Q9HBY8); experiment: Enzyme selectivity panel; format: biochemical; settings: 1 mM ATP
T2 construct: purchased In-house HTRF panel (56 kinases) and PerkinElmer (161-kinase panel)
T2 sequence (Q9HBY8 whole entry, species assumed): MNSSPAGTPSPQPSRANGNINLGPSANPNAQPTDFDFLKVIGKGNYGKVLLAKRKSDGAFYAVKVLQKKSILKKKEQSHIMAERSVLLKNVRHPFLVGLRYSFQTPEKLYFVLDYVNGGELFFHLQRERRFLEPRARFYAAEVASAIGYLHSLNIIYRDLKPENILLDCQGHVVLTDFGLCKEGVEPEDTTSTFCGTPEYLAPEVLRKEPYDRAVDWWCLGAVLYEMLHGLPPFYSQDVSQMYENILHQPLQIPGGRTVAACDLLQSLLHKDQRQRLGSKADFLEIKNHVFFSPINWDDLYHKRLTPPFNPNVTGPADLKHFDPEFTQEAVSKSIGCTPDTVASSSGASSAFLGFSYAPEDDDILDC
Procedure: as §1

CHEK1 = CHEK1 (Homo sapiens, UniProt O14757); experiment: Enzyme selectivity panel; format: biochemical; settings: 1 mM ATP
Procedure: as §1

LCK = LCK (Homo sapiens, UniProt P06239); experiment: Enzyme selectivity panel; format: biochemical; settings: 1 mM ATP
Sequence of LCK (P06239 whole entry, species assumed): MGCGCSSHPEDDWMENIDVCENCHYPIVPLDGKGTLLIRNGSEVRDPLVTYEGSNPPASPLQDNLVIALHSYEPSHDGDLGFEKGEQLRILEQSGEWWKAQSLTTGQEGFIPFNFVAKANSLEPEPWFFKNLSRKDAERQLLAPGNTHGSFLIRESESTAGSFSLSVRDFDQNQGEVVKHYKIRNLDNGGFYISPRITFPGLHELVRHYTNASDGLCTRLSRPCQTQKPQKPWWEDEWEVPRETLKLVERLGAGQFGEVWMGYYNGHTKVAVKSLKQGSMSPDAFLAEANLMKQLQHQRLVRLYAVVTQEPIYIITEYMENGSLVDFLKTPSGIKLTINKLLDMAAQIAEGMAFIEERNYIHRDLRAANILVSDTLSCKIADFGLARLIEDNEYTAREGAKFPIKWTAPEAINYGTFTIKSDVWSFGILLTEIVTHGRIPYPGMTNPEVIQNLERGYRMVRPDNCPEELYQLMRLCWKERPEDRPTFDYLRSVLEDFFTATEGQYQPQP
Procedure: as §1

LRRK2 = LRRK2 (Homo sapiens, UniProt Q5S007); experiment: Enzyme selectivity panel; format: biochemical; settings: 1 mM ATP
Procedure: as §1

xenografted tumor models = experiment: Combination with cisplatin in xenografted tumor models; format: in vivo; settings: combination of INCB054828 with cisplatin
[5] = system: AN3CA (endometrial cancer); experiment: Cell viability assay (CellTiter-Glo); format: cell-based; settings: Homo sapiens, AN3-CA; FGFR2 N310R/N549K mutations; 72 hours; read-out: Mean GI50 ± S.D.
EPHB4 = target: T3, EPHB4 (Homo sapiens, UniProt P54760); experiment: Enzyme selectivity panel; format: biochemical; settings: 1 mM ATP
T3 construct: purchased In-house HTRF panel (56 kinases) and PerkinElmer (161-kinase panel)
Procedure: as §1

IKKA = IKKA (Homo sapiens, UniProt O15111); experiment: Enzyme selectivity panel; format: biochemical; settings: 1 mM ATP
Sequence of IKKA (O15111 whole entry, species assumed): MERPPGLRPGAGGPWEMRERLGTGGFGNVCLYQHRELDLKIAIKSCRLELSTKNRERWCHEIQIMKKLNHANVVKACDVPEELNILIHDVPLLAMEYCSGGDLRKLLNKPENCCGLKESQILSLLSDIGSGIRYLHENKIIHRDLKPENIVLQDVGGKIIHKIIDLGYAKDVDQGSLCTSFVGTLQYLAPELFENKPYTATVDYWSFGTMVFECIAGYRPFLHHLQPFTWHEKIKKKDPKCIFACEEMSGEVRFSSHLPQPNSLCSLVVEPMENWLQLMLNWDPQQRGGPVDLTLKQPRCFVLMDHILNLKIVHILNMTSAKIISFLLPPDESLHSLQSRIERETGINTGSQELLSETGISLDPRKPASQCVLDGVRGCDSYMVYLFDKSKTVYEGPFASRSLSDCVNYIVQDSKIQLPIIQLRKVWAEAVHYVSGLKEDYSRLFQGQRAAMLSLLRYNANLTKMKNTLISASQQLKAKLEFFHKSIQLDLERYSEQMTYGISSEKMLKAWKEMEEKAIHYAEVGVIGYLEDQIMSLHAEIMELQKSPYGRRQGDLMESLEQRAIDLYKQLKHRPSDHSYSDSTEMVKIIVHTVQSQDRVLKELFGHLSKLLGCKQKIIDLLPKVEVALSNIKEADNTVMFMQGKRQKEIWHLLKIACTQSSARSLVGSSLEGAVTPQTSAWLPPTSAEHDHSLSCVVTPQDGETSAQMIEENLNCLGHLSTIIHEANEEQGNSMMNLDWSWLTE
Procedure: as §1

PRKAA1 = PRKAA1 (Homo sapiens, UniProt Q13131); experiment: Enzyme selectivity panel; format: biochemical; settings: 1 mM ATP
Sequence of PRKAA1 (Q13131 whole entry, species assumed): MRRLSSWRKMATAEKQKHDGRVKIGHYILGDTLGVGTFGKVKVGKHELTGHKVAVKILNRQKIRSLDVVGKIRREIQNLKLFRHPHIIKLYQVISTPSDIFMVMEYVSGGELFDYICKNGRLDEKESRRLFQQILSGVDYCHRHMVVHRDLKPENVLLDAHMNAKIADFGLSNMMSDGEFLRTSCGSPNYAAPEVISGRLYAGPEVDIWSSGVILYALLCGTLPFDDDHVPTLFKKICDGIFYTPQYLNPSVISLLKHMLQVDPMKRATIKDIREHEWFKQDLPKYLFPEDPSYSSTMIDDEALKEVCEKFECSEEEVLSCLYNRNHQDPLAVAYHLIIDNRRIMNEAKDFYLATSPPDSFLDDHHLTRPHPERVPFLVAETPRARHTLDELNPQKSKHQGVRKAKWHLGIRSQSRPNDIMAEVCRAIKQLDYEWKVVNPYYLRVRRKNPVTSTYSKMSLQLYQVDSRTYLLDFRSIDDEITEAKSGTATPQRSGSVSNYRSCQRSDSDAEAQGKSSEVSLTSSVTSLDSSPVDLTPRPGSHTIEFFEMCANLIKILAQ
Sequence of PRKAA1 (Q9Y478 whole entry partner, species assumed): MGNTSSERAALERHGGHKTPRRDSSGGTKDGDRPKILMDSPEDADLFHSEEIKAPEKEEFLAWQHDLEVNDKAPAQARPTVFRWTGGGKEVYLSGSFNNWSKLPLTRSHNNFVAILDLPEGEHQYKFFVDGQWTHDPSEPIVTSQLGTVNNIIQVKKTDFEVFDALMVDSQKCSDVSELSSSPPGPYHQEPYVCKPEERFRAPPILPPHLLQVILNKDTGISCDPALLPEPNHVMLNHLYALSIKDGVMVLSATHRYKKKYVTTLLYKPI
Sequence of PRKAA1 (P54619 whole entry partner, species assumed): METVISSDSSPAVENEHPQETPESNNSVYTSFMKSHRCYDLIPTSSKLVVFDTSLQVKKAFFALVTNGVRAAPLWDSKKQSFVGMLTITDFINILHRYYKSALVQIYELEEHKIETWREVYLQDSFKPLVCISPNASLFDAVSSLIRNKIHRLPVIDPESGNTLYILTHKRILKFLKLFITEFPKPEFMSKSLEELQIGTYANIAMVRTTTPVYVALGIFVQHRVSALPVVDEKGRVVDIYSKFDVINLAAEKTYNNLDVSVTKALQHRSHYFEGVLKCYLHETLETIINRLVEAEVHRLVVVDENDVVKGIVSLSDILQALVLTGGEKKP
Procedure: as §1

PAK4 = PAK4 (Homo sapiens, UniProt O96013); experiment: Enzyme selectivity panel; format: biochemical; settings: 1 mM ATP
Sequence of PAK4 (O96013 whole entry, species assumed): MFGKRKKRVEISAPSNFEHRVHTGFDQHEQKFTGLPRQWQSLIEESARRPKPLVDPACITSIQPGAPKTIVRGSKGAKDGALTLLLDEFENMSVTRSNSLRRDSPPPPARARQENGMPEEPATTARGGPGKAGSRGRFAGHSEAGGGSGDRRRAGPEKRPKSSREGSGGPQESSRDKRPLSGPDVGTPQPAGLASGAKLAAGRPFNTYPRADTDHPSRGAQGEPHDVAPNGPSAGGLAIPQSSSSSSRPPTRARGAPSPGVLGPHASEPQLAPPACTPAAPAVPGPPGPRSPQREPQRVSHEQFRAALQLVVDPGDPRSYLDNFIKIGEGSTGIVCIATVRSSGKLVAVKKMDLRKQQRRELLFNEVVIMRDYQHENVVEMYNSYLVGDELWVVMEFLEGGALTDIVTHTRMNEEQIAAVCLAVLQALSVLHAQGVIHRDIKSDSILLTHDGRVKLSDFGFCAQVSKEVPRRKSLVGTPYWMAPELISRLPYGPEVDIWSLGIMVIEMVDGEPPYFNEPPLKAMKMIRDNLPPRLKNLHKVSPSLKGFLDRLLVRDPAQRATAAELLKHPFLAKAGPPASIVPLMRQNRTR
Procedure: as §1

A549 = experiment: Cell viability assay (CellTiter-Glo); format: cell-based; settings: Homo sapiens, Lung cancer, lacking FGFR alterations
[6] = Sprague Dawley, plasma, oral 2 mg/kg

Sequence of TRKA (P04629 33-796, species assumed): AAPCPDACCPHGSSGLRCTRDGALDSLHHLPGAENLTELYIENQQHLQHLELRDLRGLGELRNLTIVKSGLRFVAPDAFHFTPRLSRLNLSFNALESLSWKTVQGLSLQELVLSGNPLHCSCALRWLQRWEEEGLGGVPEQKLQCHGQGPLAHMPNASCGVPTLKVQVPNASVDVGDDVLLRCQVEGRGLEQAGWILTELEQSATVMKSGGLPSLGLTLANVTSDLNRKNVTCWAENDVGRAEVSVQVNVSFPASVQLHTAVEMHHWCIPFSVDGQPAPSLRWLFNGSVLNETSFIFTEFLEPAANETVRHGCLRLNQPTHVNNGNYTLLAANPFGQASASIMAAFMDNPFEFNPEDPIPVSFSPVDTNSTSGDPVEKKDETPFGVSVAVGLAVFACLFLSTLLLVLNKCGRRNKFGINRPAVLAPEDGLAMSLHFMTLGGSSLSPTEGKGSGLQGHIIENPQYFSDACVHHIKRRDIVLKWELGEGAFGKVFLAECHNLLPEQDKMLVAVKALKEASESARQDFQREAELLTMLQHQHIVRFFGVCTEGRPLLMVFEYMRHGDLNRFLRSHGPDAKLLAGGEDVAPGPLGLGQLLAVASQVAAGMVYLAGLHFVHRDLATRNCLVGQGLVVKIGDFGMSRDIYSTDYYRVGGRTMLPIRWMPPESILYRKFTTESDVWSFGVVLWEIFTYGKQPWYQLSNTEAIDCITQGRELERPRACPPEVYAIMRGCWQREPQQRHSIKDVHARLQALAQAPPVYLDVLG
Sequence of PKCD (Q05655 whole entry, species assumed): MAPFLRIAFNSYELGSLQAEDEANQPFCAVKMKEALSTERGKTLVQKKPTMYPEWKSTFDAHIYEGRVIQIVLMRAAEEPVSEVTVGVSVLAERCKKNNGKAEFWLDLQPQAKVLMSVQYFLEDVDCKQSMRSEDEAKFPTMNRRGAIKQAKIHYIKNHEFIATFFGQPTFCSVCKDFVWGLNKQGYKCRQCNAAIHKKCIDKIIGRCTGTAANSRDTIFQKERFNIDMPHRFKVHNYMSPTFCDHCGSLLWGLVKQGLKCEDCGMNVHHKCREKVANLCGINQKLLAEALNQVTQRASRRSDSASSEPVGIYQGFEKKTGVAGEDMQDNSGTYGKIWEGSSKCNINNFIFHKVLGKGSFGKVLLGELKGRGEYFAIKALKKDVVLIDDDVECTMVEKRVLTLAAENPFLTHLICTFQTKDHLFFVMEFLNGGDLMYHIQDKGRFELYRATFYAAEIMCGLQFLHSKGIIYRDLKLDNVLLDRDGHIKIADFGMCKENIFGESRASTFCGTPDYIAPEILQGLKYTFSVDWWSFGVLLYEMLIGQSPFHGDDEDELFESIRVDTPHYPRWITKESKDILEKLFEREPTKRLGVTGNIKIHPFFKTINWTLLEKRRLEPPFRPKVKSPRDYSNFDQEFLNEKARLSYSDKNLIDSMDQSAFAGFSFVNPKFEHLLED

CCN1C(=O)N(c2c(F)c(OC)cc(OC)c2F)Cc2cnc3[nH]c(CN4CCOCC4)cc3c21 [INCB054828, pemigatinib]
IC50 (PKCD): > 10 µM
potent inhibition of FGFR3 (phospho-FGFR3), concentration [1]: < 10 nM
GI50 (UMUC3): > 5 µM
IC50 (TRKA): > 10 µM
IC50 (PHKG2): > 10 µM
clearance (Pharmacokinetic analyses; Sprague Dawley, plasma, intravenous 1 mg/kg): 17.2 mL/min/kg
Vd (Pharmacokinetic analyses; Sprague Dawley, plasma, intravenous 1 mg/kg, read-out: Vss): 1.85 L/kg
half-life (Pharmacokinetic analyses; Sprague Dawley, plasma, intravenous 1 mg/kg, read-out: t½ (converted)): 4 h
Cmax (Pharmacokinetic analyses; [6]): 2260 nM
bioavailability (Pharmacokinetic analyses; [6]): > 100%
Hepatic ER (Pharmacokinetic analyses; intravenous 1 mg/kg, % of hepatic blood flow): 31%
%F (Pharmacokinetic analyses; oral 2 mg/kg): complete
AUC (Pharmacokinetic analyses; oral 2 mg/kg): 7.67 µM·h
GI50 (KG1a (AML)): 0.003 ± 0.001 µM
levels of phospho-FRS2 and phospho-ERK [2]: strongly suppresses
average half maximal effective dose for phosphate induction ([3]; 2 independent experiments): 2.9 mg/kg
serum phosphorus ([3]; 24 hours after dosing): dose-dependent increase
IC50 [4]: 0.0082 µM
GI50 (RT-112 (bladder cancer)): 0.007 ± 0.003 µM
IC50 (SGK2): > 10 µM
IC50 (CHEK1): > 10 µM
IC50 (LCK): > 10 µM
IC50 (LRRK2): > 10 µM
benefit of combination with cisplatin over either single agent (xenografted tumor models): significant benefit over either single agent
GI50 [5]: 0.048 ± 0.028 µM
IC50 (EPHB4): > 10 µM
IC50 (IKKA): > 10 µM
IC50 (PRKAA1): > 10 µM
IC50 (PAK4): > 10 µM
GI50 (A549): > 5 µM
